{"source": "paper PMC12051620", "about": "“Molecular basis underlying the specificity of an antagonist AA92593 for mammalian melanopsins” (The Journal of Biological Chemistry, 2025)", "biological_target": "T1, mouse melanopsin (Mus musculus, UniProt Q9QXZ9)", "T1 construct": "the C-terminal amino acid residues (94, 140, 200, 214, 296, and 308 residues); expressed in transfected cells; host or cells: COS-1", "T1 sequence (Q9QXZ9 1-381 limits assumed)": "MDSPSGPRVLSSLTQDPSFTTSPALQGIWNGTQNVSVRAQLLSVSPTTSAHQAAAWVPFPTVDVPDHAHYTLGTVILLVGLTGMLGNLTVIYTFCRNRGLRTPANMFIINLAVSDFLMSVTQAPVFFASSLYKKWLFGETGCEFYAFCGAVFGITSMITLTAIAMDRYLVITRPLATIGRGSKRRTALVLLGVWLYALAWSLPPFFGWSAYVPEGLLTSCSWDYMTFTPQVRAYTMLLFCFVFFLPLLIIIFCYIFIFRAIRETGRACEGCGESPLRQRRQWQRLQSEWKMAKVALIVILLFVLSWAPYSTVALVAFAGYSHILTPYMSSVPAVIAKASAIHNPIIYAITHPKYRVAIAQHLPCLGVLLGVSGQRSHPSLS", "experiment": "GsX GloSensor assay with Gsα/i11", "type": "cell-based", "conditions": "16.7 μM AA92593; COS-1 cells", "excerpt": "Previous studies of human and mouse melanopsins reported that these melanopsins can activate not only Gq but Gs and Gi ([20], [21], [22]). Thus, we assessed the effect of AA92593 on Gsα WT or Gsα/i11 (with 11 C-terminal sequence of Giα) using the GsX GloSensor assay. In agreement with the promiscuous G protein-coupling of melanopsins, we observed light-dependent increase of GloSensor luminescence in COS-1 cells expressing Gsα or Gsα/i11 with human/mouse melanopsins (Fig. 1, G–J).\nFor GloSensor assay, opsins, GloSensor assay sensor (coded by pGlo-22F), and NanoBiT-tagged G proteins were transiently expressed in COS-1 cells (kindly provided from Dr David Farrens, Oregon Health and Science University) using PEI as described previously ([24], [52]). […] For GFP-fluorescence microscopy, a 35-mm cell culture dish (IWAKI) was transfected with 2 μg melanopsin-GFP plasmid and 8 μg PEI in 400 μl Opti-mem and 1.2 ml D-MEM. […]\nThe transfected COS-1 cells were incubated at 37 °C, 5% CO2 for 2 days, and the medium was aspirated and exchanged with 50 μl of HBSS (145 mM NaCl, 10 mM D-glucose, 5 mM KCl, 1 mM MgCl2, 1.7 mM CaCl2, 1.5 mM NaHCO3, 10 mM Hepes, pH 7.4), containing 33.3, 20, 10, 2, 0.2, 0.02, 0.002, or 0 μM AA92593, 0.5% dimetyl sulfoxide (DMSO), and 4% (vol/vol) GloSensor cAMP reagent stock solution. […] Luminescence was measured using GM-2000 or GM-3510 microplate reader (Promega). […]"}
{"compound": "COc1ccc(S(=O)(=O)N2CCCCC2)cc1C", "note": "[AA92593]", "values": [{"measurement": "effect on melanopsin-induced cAMP responses via Gsα/i11", "result": "can suppress"}]}
